These results are taken from patent US4742058A, “Polyprenyl compound, process for the production thereof and drug containing the same” (Eisai Co., Ltd., priority 1982, dated 1988).

Assay [1] deals with platelet aggregation provoked by PAF (washed rabbit platelets). The assay is described as follows: Anti-PAF activity (inhibition of PAF-provoked platelet aggregation in washed platelets, nephelometry). It is filed as cell-based. The following applies: Oryctolagus cuniculus, PAF 30 ng/ml, read-out: Inhibition rate PAF. On the procedure: (a) Preparation of washed platelet suspension (hereinafter referred to as W.P.)
(§1) A blood sample was collected from a carotid artery of a male rabbit weighing 2.5 kg, while adding thereto one volume of a 3.13% sodium citrate solution per 9 volumes of blood as a […]. The resulting blood was centrifuged at 200 xg for 20 minutes to separate out platelet-rich plasma (hereinafter referred to as PRP). This PRP was centrifuged at 1,000 xg for 15 minutes to separate the platelets from the plasma. The deposited platelets were washed twice with a Tyrode solution (Tyrode-Ca^++), from which Ca^++ had been removed and to which 1% bovine serum albumin (BSA) had been added, such that 9×10^5 platelets per μl were finally suspended in the Tyrode solution.
(b) Preparation of specimens and PAF
Specimens were dissolved or suspended in a physiological saline. PAF was dissolved in a Tyrode solution containing 1% BSA. PAF synthesized from D-mannitol in accordance with a method disclosed by J. J. Godfroid et al was used (FEBS Letters 116, 161-164, 1980).
(c) Measurement of platelet aggregation
(§2) Platelet aggregation measurements were conducted according to nephelometry described by Born et al using a platelet aggregation meter manufactured by Schenko Co. Specimen solutions having various concentrations of test compounds and 0.25 ml of W.P. were subjected to preincubation at 37° C. for 4 minutes, and then PAF was added thereto to give a final PAF concentration of 30 ng/ml to provoke platelet aggregation. The transmittance of the W.P. before aggregation, that is, before the addition of the aggregation provoking agent, was rated as 0, and the transmittance of the Tyrode solution was rated as 100. After the addition of the PAF solution to the W.P., light transmittance increased as aggregation proceeded. The value of the light transmittance at the time when the aggregation had proceeded to a maximum was rated as the maximum aggregation (hereinafter referred to as MA) which was used as an index of the degree of aggregation.
(§3) The inhibition rate was calculated according to the following equation. The aggregation in a W.P.-containing physiological saline solution free of test compound, as a control, was rated as 0% aggregation inhibition. [formula] wherein M.A. Control: maximum aggregation after platelet aggregation in PAF was provoked, after the addition of physiological saline.
M.A. Sample: maximum aggregation after platelet aggregation in PAF was provoked, after the addition of the test compound.

Assay [2] concerns platelet aggregation provoked by bovine thrombin (washed rabbit platelets). As to the kind of experiment: Antithrombic activity (inhibition of thrombin-provoked platelet aggregation). It is filed as cell-based. The following applies: Oryctolagus cuniculus, bovine thrombin 0.2 units/ml, read-out: Inhibition rate Thrombin (%). On the procedure: as §1, §2, §3
(2) Antithrombic activity
The measurement of the antithrombic activity was conducted in the same manner as described above, except that bovine thrombin at a final concentration of 0.2 units/ml was used as the platelet aggregation provoking agent in place of PAF.

In the case of `CC(C)=CCC/C(C)=C/CC/C(C)=C/CC/C(C)=C/C(=O)N(CCO)CCO`, the inhibition at 50 µM in assay [1] came out at 76.4%.
On the same count and under the same terms, as for `CC(C)=CCC/C(C)=C/CCC(C)CC(=O)NCCO` (centres unmarked), the figure is 31.4%.
On the same count and under the same terms, with `CC(C)=CCC/C(C)=C/CC/C(C)=C/CC/C(C)=C/CC/C(C)=C/C(=O)NCCO` the figure was 22.7%; with `CC(C)=CCC/C(C)=C/CC/C(C)=C/C(=O)NCCO`, 18.7%.
In the case of `CC(C)=CCC/C(C)=C/CC/C(C)=C/CC/C(C)=C/C(=O)N1CCCC(O)C1` (centres unmarked), the inhibition at 50 µM in assay [1] is 27.4%; in assay [2] it was 19.2%.
In the same order, the values of `CC(C)=CCC/C(C)=C/CC/C(C)=C/CC/C(C)=C/C(=O)N1CCCCC1CO` (centres unmarked) are 34.4% and 27.4%.
Take `CCN1CCCC(NC(=O)/C=C(\C)CC/C=C(\C)CC/C=C(\C)CCC=C(C)C)C1` (centres unmarked): the values for the inhibition at 50 µM in assay [1] and in assay [2] were 80.3% and 24.2%, respectively.
Turning to `CC(C)CCCC(C)Cc1ccc(C(=O)NCCO)cc1` (centres unmarked), in assay [1], the inhibition at 20 µM is 57.8%.
Still for that read-out and setting: with `CC(C)CCCC(C)Cc1ccc(C(=O)N(CCN(C)C)CCN(C)C)cc1` (centres unmarked) the figure was 59.4%.
Consider `CC(C)CCCC(C)CCCc1ccc(C(C)CC(=O)N(CCN(C)C)CCN(C)C)cc1` (centres unmarked), for which, in assay [1], the inhibition at 20 µM was 57.8% and the inhibition at 50 µM was determined as 82.6%.
Regarding `CC(=CC(=O)NCCO)c1ccc(CCCC(C)CCCC(C)C)cc1` (centres unmarked), the inhibition at 20 µM in assay [1] is 55.9%.
Take `CC(=CC(=O)N(CCN(C)C)CCN(C)C)c1ccc(CCCC(C)CCCC(C)C)cc1` (centres unmarked): in assay [1], the inhibition at 20 µM worked out at 63.2% and the inhibition at 50 µM is 82.2%.
On to `CC(C)CCCC(C)CCCC(C)Cc1ccc(C(=O)N(CCN(C)C)CCN(C)C)c(F)c1` (centres unmarked), for which the inhibition at 20 µM in assay [1] is 64.9%.
Still for that read-out and setting: with `CC(C)CCCC(C)CCCC(C)Cc1ccc(C(=O)N(CCN(C)C)CCN(C)C)c2ccccc12` (centres unmarked) the figure was 59.3%.
Still for that read-out and setting: with `CC(C)CCCC(C)CCCC(C)Cc1cccc2c(C(=O)N(CCN(C)C)CCN(C)C)cccc12` (centres unmarked) the figure was 58.3%; with `CC(C)CCCC(C)CCCC(C)Cc1ccc(C(=O)N(CCN(C)C)CCN(C)C)c2c1CCCC2` (centres unmarked), 50.5%.
Take `CC(C)=CCC/C(C)=C/CC/C(C)=C/CC/C(C)=C/CNC(=O)CN(C)C`: the inhibition at 20 µM in assay [1] worked out at 60.4%.
Same read-out and setting: with `CC(C)=CCC/C(C)=C/CC/C(C)=C/CC/C(C)=C/CNC(=O)CCN` the figure was 59.1%.
On the same count and under the same terms, with `CC(C)=CCC/C(C)=C/CC/C(C)=C/CC/C(C)=C/CNCCN(C)C` the figure was 37.1%; with `CC(C)=CCC/C(C)=C/CC/C(C)=C/CC/C(C)=C/C(=O)NCCN(C)C`, 74.3%.
Consider `CC(C)=CCC/C(C)=C/CC/C(C)=C/CC/C(C)=C/C(=O)N(CCN(C)C)CCN(C)C`, for which the inhibition at 20 µM was determined as 88.7% in assay [1] and 76.4% in assay [2].
In the same order, the values of `CC(C)=CCC/C(C)=C/CC/C(C)=C/c1ccc(C(=O)NCCN(C)C)cc1` are 73.5% and 34.2%.
In the same order, the values of `CC(C)CCCC(C)CCCC(C)Cc1ccc(C(=O)NCCN(C)C)cc1` (centres unmarked) are 80.6% and 70.3%.
Taken in the same sequence, the figures for `CC(C)=CCC/C(C)=C/CC/C(C)=C/c1ccc(C(=O)N(CCN(C)C)CCN(C)C)cc1` were 93.6% and 70.6%.
As for `CC(C)CCCC(C)CCCC(C)Cc1ccc(C(=O)N(CCN(C)C)CCN(C)C)cc1` (centres unmarked), the inhibition at 20 µM in assay [1] was 74.7%; in assay [2], 78.8%.
